From US11465987B2, “Compounds for treatment of cancer” (ONCTERNAL THERAPEUTICS, INC., priority 2012, dated 2022) come the findings set out here.

Read-outs that look alike come from different tables or passages of the source. A value given as a limit tells only on which side of the number the result lay.

Experiment [1] relates to DU 145 human prostate cancer cell line. Nature of the experiment: Cytotoxicity (SRB) assay, DU 145. The experiment is classed as cell-based. The source says: (§1) Cells were stained with SRB solution.
The test system of experiment [2] is PC-3 human prostate cancer cell line. In words: cells. The note with it: Homo sapiens.
From the text: as §1

For experiment [3], the system named is PPC-1 human prostate cancer cell line. Nature of the experiment: Cytotoxicity (SRB) assay, PPC-1. It counts as cell-based. The note with it: Homo sapiens, PPC-1, Table 6A; read-out: IC50 ± SEM, PPC-1 (converted).
From the text: as §1

Where [4] appears, read: read-out: IC50 PC-3, SRB assay, prostate cancer PC-3.
Setting [5] is: read-out: IC50 ± SEM, PC-3, Table 13.
Setting [6] is: read-out: IC50 ± SEM, PC-3, Table 12.
The mark [7] stands for this setting: Homo sapiens, DU-145, Table 6A, read-out: IC50 ± SEM, DU 145.
The mark [8] stands for this setting: read-out: IC50 ± SEM, PC-3, Table 6A.

Consider “4-Methoxyphenyl(4-(3,4,5-trimethoxyphenyl)-1H-imidazol-2-yl)methanone and 4-methoxyphenyl(5-(3,4,5-trimethoxyphenyl)-1H-imidazol-2-yl)methanone [70y]”, for which the IC50 in experiment [1] (Table 13B, read-out: inhibitory effects, DU145) is over 50 µM.

With `COc1cc(C(=O)c2cc(-c3ccccc3)n[nH]2)cc(OC)c1OC` [1k, (3-Phenyl-1H-pyrazol-5-yl)(3,4,5-trimethoxyphenyl)methanone], the IC50 in experiment [2] (setting [4]) is 0.101 µM.

On to `COc1cc(C(=C(C)C)c2csc(-c3ccccc3)n2)cc(OC)c1OC` [2a, 4-(2-Methyl-1-(3,4,5-trimethoxyphenyl)prop-1-enyl)-2-phenylthiazole], for which the IC50 in experiment [2] (setting [4]) was determined as 2.47 µM.

`COc1cc(/C(=C\C#N)c2csc(-c3ccccc3)n2)cc(OC)c1OC` [2c-cis, (E)-3-(2-phenylthiazol-4-yl)-3-(3,4,5-trimethoxyphenyl)acrylonitrile]: the IC50 in experiment [2] (read-out: IC50 PC-3) was about 10 µM.

Take `COc1cc(/C(=C/C#N)c2csc(-c3ccccc3)n2)cc(OC)c1OC` [2c-trans, (Z)-3-(2-phenylthiazol-4-yl)-3-(3,4,5-trimethoxyphenyl)acrylonitrile]: in experiment [2] (read-out: IC50 PC-3), the IC50 was found to be 0.89 µM.

As for `COc1cc(/C(=N/N)c2csc(-c3ccccc3)n2)cc(OC)c1OC` [2d-cis, (Z)-4-(hydrazono(3,4,5-trimethoxyphenyl)methyl)-2-phenylthiazole], in experiment [2] (setting [4]), the IC50 was found to be 1.12 µM.

For the molecule `COc1cc(/C(=N\N)c2csc(-c3ccccc3)n2)cc(OC)c1OC` [2d-trans, (E)-4-(hydrazono(3,4,5-trimethoxyphenyl)methyl)-2-phenylthiazole], the IC50 in experiment [2] (setting [4]) came to 1.04 µM.

Regarding `CO/N=C(/c1cc(OC)c(OC)c(OC)c1)c1csc(-c2ccccc2)n1` [2f-cis, (Z)-(2-Phenylthiazol-4-yl)(3,4,5-trimethoxyphenyl)methanone O-methyl oxime], the IC50 in experiment [2] (setting [4]) is over 10 µM.

Regarding `CO/N=C(\c1cc(OC)c(OC)c(OC)c1)c1csc(-c2ccccc2)n1` [2f-trans, (E)-(2-Phenylthiazol-4-yl)(3,4,5-trimethoxyphenyl)methanone O-methyl oxime], the IC50 in experiment [2] (setting [4]) is over 10 µM.

For `COc1cc(C(=O)Nc2csc(-c3ccccc3)n2)cc(OC)c1OC` [2h, 3,4,5-Trimethoxy-N-(2-phenylthiazol-4-yl)benzamide], the IC50 in experiment [2] (setting [4]) is over 10 µM.

Regarding `COc1cc(-c2csc(-c3ccccc3)n2)cc(OC)c1OC` [2i, 2-Phenyl-4-(3,4,5-trimethoxyphenyl)thiazole], the IC50 in experiment [2] (setting [4]) is over 10 µM.

For `COc1cc(/C=C/c2csc(-c3ccccc3)n2)cc(OC)c1OC` [3b, (E)-2-Phenyl-4-(3,4,5-trimethoxystyryl)thiazole], the IC50 in experiment [2] (read-out: IC50 PC-3) was over 10 µM.

With `COc1cc(S(=O)(=O)c2cccc(-c3ccccc3)c2)cc(OC)c1OC` [4b, 3-(3,4,5-Trimethoxyphenylsulfonyl)biphenyl], the IC50 in experiment [2] (setting [4]) is over 10 µM.

Regarding `COc1cc([S+]([O-])c2cccc(-c3ccccc3)c2)cc(OC)c1OC` (centres unmarked) [4c, 3-(3,4,5-Trimethoxyphenylsulfinyl)biphenyl], the IC50 in experiment [2] (setting [4]) is over 10 µM.

On to `COc1cc(NS(=O)(=O)c2cccc(-c3ccccc3)c2)cc(OC)c1OC` [4d, N-(3,4,5-Trimethoxyphenyl)biphenyl-3-sulfonamide], for which the IC50 in experiment [2] (setting [4]) was over 10 µM.

`COc1cc(C(=O)c2csc(Nc3ccccc3)n2)cc(OC)c1OC` [5a, (2-(phenylamino)thiazol-4-yl)(3,4,5-trimethoxyphenyl)methanone]: in experiment [2] (setting [4]), the IC50 turned out to be 0.057 ± 0.003 µM.

As for `COc1cc(C(=O)c2csc(Nc3ccc(F)cc3)n2)cc(OC)c1OC` [5c, (2-(p-fluorophenylamino)thiazol-4-yl)(3,4,5-trimethoxyphenyl)methanone], the IC50 in experiment [2] (setting [4]) was found to be 0.043 ± 0.001 µM.

`COc1cc(C(=O)c2csc(Nc3ccc(Cl)cc3)n2)cc(OC)c1OC` [5d, (2-(4-chlorophenylamino)thiazol-4-yl)(3,4,5-trimethoxyphenyl)methanone]: the IC50 in experiment [2] (setting [4]) amounted to 0.033 ± 0.001 µM.

`COc1cc(C(=O)c2c[nH]c(Nc3ccccc3)n2)cc(OC)c1OC` [5e, (2-(phenylamino)-1H-imidazol-4-yl)(3,4,5-trimethoxyphenyl)methanone]: in experiment [2] (setting [4]), the IC50 was over 1 µM.

On to `COc1ccc(C(=O)c2cn(S(=O)(=O)c3ccccc3)c(-c3ccccc3)n2)cc1` [11ab, (4-methoxyphenyl)(2-phenyl-1-(phenylsulfonyl)-1H-imidazol-4-yl)methanone], for which the IC50 in experiment [2] (setting [5]) is over 10 µM.

`COc1cccc(C(=O)c2cn(S(=O)(=O)c3ccccc3)c(-c3ccccc3)n2)c1` [11ac, (3-methoxyphenyl)(2-phenyl-1-(phenylsulfonyl)-1H-imidazol-4-yl)methanone]: in experiment [2] (setting [5]), the IC50 was over 10 µM.

Turning to `O=C(c1cccc(F)c1)c1cn(S(=O)(=O)c2ccccc2)c(-c2ccccc2)n1` [11ag, (3-fluorophenyl)(2-phenyl-1-(phenylsulfonyl)-1H-imidazol-4-yl)methanone], in experiment [2] (setting [5]), the IC50 was over 10 µM.

Regarding `Cc1ccc(C(=O)c2cn(S(=O)(=O)c3ccccc3)c(-c3ccccc3)n2)cc1` [11ah, (2-phenyl-1-(phenylsulfonyl)-1H-imidazol-4-yl)(p-tolyl)methanone], the IC50 in experiment [2] (setting [5]) is over 10 µM.

For the molecule `Cc1ccc(-c2nc(C(=O)c3ccc(F)cc3)cn2S(=O)(=O)c2ccccc2)cc1` [11db, (4-fluorophenyl)(1-(phenylsulfonyl)-2-(p-tolyl)-1H-imidazol-4-yl)methanone], the IC50 in experiment [2] (setting [5]) was determined as 0.08 µM.

Take `COc1ccc(-c2nc(C(=O)c3ccc(F)cc3)cn2C)cc1` [12cba, (4-fluorophenyl)(2-(4-methoxyphenyl)-1-methyl-1H-imidazol-4-yl)methanone]: in experiment [2] (setting [5]), the IC50 was over 10 µM.

Regarding `CN(C)c1ccc(-c2nc(C(=O)c3ccc(F)cc3)c[nH]2)cc1` [12gb, (2-(4-(dimethylamino)phenyl)-1H-imidazol-4-yl)(4-fluorophenyl)methanone], in experiment [2] (setting [6]), the IC50 is 0.081 µM.

Take `COc1cc(C(=O)c2c[nH]c(-c3ccc(C(F)(F)F)cc3)n2)cc(OC)c1OC` [12pa, (2-(4-(trifluoromethyl)phenyl)-1H-imidazol-4-yl)(3,4,5-trimethoxyphenyl)methanone]: the IC50 in experiment [2] (setting [6]) is 0.127 µM.

Regarding `O=C(c1cc(O)c(O)c(O)c1)c1c[nH]c(-c2cc(O)c(O)c(O)c2)n1` [13ea, (3,4,5-trihydroxyphenyl)(2-(3,4,5-trihydroxyphenyl)-1H-imidazol-4-yl)methanone], the IC50 in experiment [2] (setting [6]) was over 10 µM.

As for `COc1cc(C(=O)c2cn(S(=O)(=O)c3ccccc3)c(-c3ccc4c(c3)cc(C(=O)c3cc(OC)c(OC)c(OC)c3)n4S(=O)(=O)c3ccccc3)n2)cc(OC)c1OC` [16xaa, (1-(phenylsulfonyl)-2-(1-(phenylsulfonyl)-2-(3,4,5-trimethoxybenzoyl)-1H-indol-5-yl)-1H-imidazol-4-yl)(3,4,5-trimethoxyphenyl)methanone], in experiment [2] (read-out: IC50 ± SEM, PC-3), the IC50 is over 10 µM.

Regarding `COc1cc(C(=O)[C@@H]2CSC(c3ccc(O[Si](C)(C)C(C)(C)C)cc3)=N2)cc(OC)c1OC` [58a, (R)-(2-(4-(tert-Butyldimethylsilyloxy)phenyl)-4,5-dihydrothiazol-4-yl)(3,4,5-trimethoxyphenyl)methanone], the IC50 in experiment [2] (read-out: IC50 PC-3) came to 0.183 ± 0.024 µM.

With `COc1cc(C(=O)c2csc(-c3cc4ccccc4[nH]3)n2)cc(OC)c1OC` [62a, (2-(1H-indol-2-yl)thiazol-4-yl)(3,4,5-trimethoxyphenyl)methanone], the IC50 in experiment [2] (read-out: IC50 PC-3) was found to be 0.024 µM.

On to `COc1cc(C(=O)c2csc(-c3ccc(CNC(=O)OC(C)(C)C)cc3)n2)cc(OC)c1OC` [68a, tert-Butyl 4-(4-(3,4,5-trimethoxybenzoyl)thiazol-2-yl)benzylcarbamate], for which the IC50 in experiment [2] (setting [4]) came out at 3.1 µM.

On to `COc1cc(C(=O)c2csc(-c3ccccc3)n2)cc(OC)c1OCc1ccccc1` [compound 9], for which the IC50 in experiment [1] (setting [7]), in experiment [3] and in experiment [2] (setting [8]) was about 10 µM in each case.

Take `Cc1ccc(-c2nc(C(=O)c3ccc(F)cc3)cs2)cc1` [compound 11]: the IC50 in experiment [1] (setting [7]), in experiment [3] and in experiment [2] (setting [8]) was over 10 µM in each case.

In the case of `O=C(c1ccc(F)cc1)c1csc(-c2ccccc2)n1` [compound 12], the IC50 in experiment [1] (setting [7]), in experiment [3] and in experiment [2] (setting [8]) was over 10 µM throughout.

Consider `O=C(c1ccc(OC(F)(F)F)cc1)c1csc(-c2ccccc2)n1` [compound 13], for which the IC50 in experiment [1] (setting [7]), in experiment [3] and in experiment [2] (setting [8]) was over 10 µM each time.

As to `O=C(c1ccc(F)cc1)c1csc(-c2ccc(F)cc2)n1` [compound 14], the IC50 in experiment [1] (setting [7]), in experiment [3] and in experiment [2] (setting [8]) was over 10 µM throughout.

On to `O=C(c1csc(-c2cc(F)c(F)c(F)c2)n1)c1c(F)c(F)c(F)c(F)c1F` [compound 16], for which the IC50 in experiment [1] (setting [7]), in experiment [3] and in experiment [2] (setting [8]) was over 10 µM in each case.

Turning to `COc1cc(C(=O)c2csc(-c3ccccc3)n2)cc(OC)c1OC(=O)CCl` [compound 18], the IC50 in experiment [1] (setting [7]), in experiment [3] and in experiment [2] (setting [8]) was about 10 µM in each case.

As for `O=C(c1ccc2c(c1)OCO2)N1CCC(c2ccccc2)CC1` [compound 19], the IC50 in experiment [1] (setting [7]), in experiment [3] and in experiment [2] (setting [8]) was over 20 µM throughout.

Take `COc1cc(C(=NC#N)c2csc(-c3ccccc3)n2)cc(OC)c1O` [compound 32, N-((4-hydroxy-3,5-dimethoxyphenyl)(2-phenylthiazol-4-yl)methylene)cyanamide]: the IC50 in experiment [2] (setting [8]) was found to be 2.29 µM.

Consider `c1ccc(Nc2nccn2C(c2ccccc2)(c2ccccc2)c2ccccc2)cc1` [d, N-Phenyl-1-trityl-1H-imidazol-2-amine], for which the IC50 in experiment [2] (setting [4]) is over 1 µM.

In the case of `COc1cc(C(=O)c2cn(C(c3ccccc3)(c3ccccc3)c3ccccc3)c(Nc3ccccc3)n2)cc(OC)c1OC` [e, (2-(Phenylamino)-1-trityl-1H-imidazol-4-yl)(3,4,5 trimethoxyphenyl)methanone], the IC50 in experiment [2] (setting [4]) is over 1 µM.
